“And” between values parts separate entries of the source, which are not always exact repeats. Equal entries are not always repeated.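 Briefly, cells in 96-well plates were exposed to five compound concentrations for 48 h, and endpoints were estimated by linear interpolation. GI50 marks 50% less growth.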 The source made the active and inactive calls. Rule as the data show it: active = GI50 up to about 1.1 µM and inactive = higher.
Legend:
Experiment in all cases: NCI-60 cell line screen, 48 h
[1] = system: DLD-1
[2] = system: DMS-114
[3] = system: DMS-273
[4] = system: KM-20L2
[5] = system: LXFL 529
[6] = system: RXF 631
[7] = system: XF498
[8] = system: BT-549
[9] = system: HOP-18

Compound: Cc1cc(C)c(C(=O)O)c(SSc2cc(C)cc(C)c2C(=O)O)c1
- GI50 [1]: > 100 µM (inactive)
- GI50 [2]: > 100 µM (inactive)
- GI50 [3]: > 100 µM (inactive)
- GI50 [4]: > 100 µM (inactive)
- GI50 [5]: > 100 µM (inactive)
- GI50 [6]: > 100 µM (inactive)
- GI50 [7]: > 100 µM (inactive)

Compound: COc1ccc2c(Cl)cc(NC(=S)Nc3ccccc3)nc2c1
- GI50 [8]: 39 µM (inactive)

Compound: N#CC1=C(N)N(c2ccccc2)C(c2ccccc2)C1(C#N)C#N (stereo unspecified)
- GI50 [8]: 16.7 µM (inactive)

Compound: CC(NC(=O)c1ccccc1)(C(=O)O)C(=O)O
- GI50 [8]: > 100 µM (inactive)

Compound: CC(=O)O[C@@]12CO[C@@H]1C[C@@H](O)[C@@]1(C)C(=O)[C@H](O)C3=C(C)[C@@H](OC(=O)[C@H](O)[C@@H](NC(=O)c4ccccc4)c4ccccc4)C[C@@](O)([C@@H](OC(=O)c4ccccc4)C12)C3(C)C (stereo partly specified)
- GI50 [8]: 0.0243 µM (active)
- GI50 [2]: < 0.01 µM (active)
- GI50 [3]: < 0.01 µM (active)
- GI50 [4]: 0.0134 µM (active)

Compound: CN1CCN(c2ccc([N+](=O)[O-])c3no[n+]([O-])c23)CC1
- GI50 [8]: 1.09 µM (active)

Compound: CC(=O)OC(C)C1C2=C(C(=O)CC1(C)O)C(=O)c1c(ccc(-c3ccc4c(c3O)C(=O)C3=C(C4=O)C(C(C)OC(C)=O)C(C)(O)CC3=O)c1O)C2=O (stereo unspecified)
- GI50 [8]: 1.28 µM (inactive)
- GI50 [1]: 1.11 µM (active)
- GI50 [2]: 0.286 µM (active)
- GI50 [3]: 1.52 µM (inactive)
- GI50 [9]: 0.457 µM (active)
- GI50 [4]: 2.04 µM (inactive)
- GI50 [5]: 0.428 µM (active)

Compound: O=C(O)Cc1cccnc1
- GI50 [8]: > 100 µM (inactive)

Compound: N=C(N)N/N=C/c1c(-c2cc([N+](=O)[O-])c(Cl)cc2Cl)nc2sccn12
- GI50 [8]: 1.4 µM (inactive) and 1.46 µM (inactive)

Compound: O=Cc1[nH]c(=O)[nH]c(=O)c1CCl
- GI50 [8]: > 100 µM (inactive)

Compound: CCN1c2ccccc2C(C(SC)S(=O)(=O)c2ccc(C)cc2)c2c1[nH]c(=O)n(C)c2=O (stereo unspecified)
- GI50 [1]: > 100 µM (inactive)
- GI50 [2]: > 100 µM (inactive)
- GI50 [3]: > 100 µM (inactive)
- GI50 [9]: 22.9 µM (inactive)
- GI50 [5]: > 100 µM (inactive)
- GI50 [7]: > 100 µM (inactive)

Compound: CCCCCCCCCCCCCC(=O)CBr
- GI50 [8]: 8.71 µM (inactive)
- GI50 [1]: 11.7 µM (inactive)
- GI50 [2]: 3.9 µM (inactive)
- GI50 [3]: > 10 µM (inactive)
- GI50 [9]: 14.7 µM (inactive)
- GI50 [4]: 15.6 µM (inactive)
- GI50 [5]: 3.72 µM (inactive)
- GI50 [6]: 16.3 µM (inactive)

Compound: CC1C(O)Oc2cc3c(cc2C1c1ccccc1O)OCO3 (stereo unspecified)
- GI50 [8]: 34.9 µM (inactive)

Compound: O=[N+]([O-])c1cc([N+](=O)[O-])c(Nn2c3ccccc3c3ccccc32)c([N+](=O)[O-])c1
- GI50 [8]: 2.18 µM (inactive)

Compound: O=C(CC1S/C(=N\c2ccccc2Cl)NC1=O)Nc1ccc(Cl)cc1 (stereo unspecified)
- GI50 [1]: > 100 µM (inactive)
- GI50 [2]: > 100 µM (inactive)
- GI50 [3]: > 100 µM (inactive)
- GI50 [4]: > 100 µM (inactive)
- GI50 [5]: > 100 µM (inactive)

Compound: CCCNCC(O)CNc1ccc(NCC(O)CNCCC)c2c1C(=O)c1ccccc1C2=O (stereo unspecified)
- GI50 [8]: 2.14 µM (inactive)

Compound: Cc1nc2ccc(C(F)(F)F)cc2nc1NCc1ccc(Cl)c(Cl)c1
- GI50 [8]: 20.2 µM (inactive)

Compound: CC(=O)c1ccc2c(c1)CC1(C2)Cc2ccc3c(c2C1=O)CCC3 (stereo unspecified)
- GI50 [8]: 27.9 µM (inactive)

Compound: CSc1nc(SC)c2c(C#N)n[nH]c2n1
- GI50 [1]: > 100 µM (inactive)
- GI50 [2]: > 100 µM (inactive)
- GI50 [3]: > 100 µM (inactive)
- GI50 [4]: > 100 µM (inactive)
- GI50 [6]: > 100 µM (inactive)
- GI50 [7]: > 100 µM (inactive)

Compound: Clc1cc(Cl)c2ns[s+]c2c1Cl
- GI50 [1]: > 100 µM (inactive)
- GI50 [3]: > 100 µM (inactive)
- GI50 [9]: 78.3 µM (inactive)
- GI50 [4]: > 100 µM (inactive)
- GI50 [5]: > 100 µM (inactive)
- GI50 [7]: > 100 µM (inactive)

Compound: CN(C)CCS/C(=N\c1ccccc1)n1cccc1
- GI50 [1]: > 100 µM (inactive)
- GI50 [2]: 26.3 µM (inactive)
- GI50 [3]: 62.5 µM (inactive)
- GI50 [9]: > 100 µM (inactive)
- GI50 [4]: 32.1 µM (inactive)
- GI50 [5]: 42.7 µM (inactive)
- GI50 [7]: > 100 µM (inactive)

Compound: CC(C)OC(=O)[C@@H]1OC(C)(C)O[C@H]1C(=O)OC(C)C
- GI50 [8]: > 100 µM (inactive)

Compound: COc1cc(/C=C2\C(=O)N(c3ccc(NC(C)=O)cc3)C(c3ccccc3)S2(=O)=O)cc(OC)c1OC (stereo unspecified)
- GI50 [8]: > 100 µM (inactive)

Compound: c1ccc2c(c1)nc1n2sc2nc3ccccc3n21
- GI50 [8]: > 100 µM (inactive)

Compound: Cc1c(-c2cc(-c3ccccc3)n[nH]c2=O)c2ccccc2n1C
- GI50 [1]: > 100 µM (inactive)
- GI50 [2]: > 100 µM (inactive)
- GI50 [3]: > 100 µM (inactive)
- GI50 [9]: 71.3 µM (inactive)
- GI50 [4]: > 100 µM (inactive)
- GI50 [5]: > 100 µM (inactive)
- GI50 [7]: > 100 µM (inactive)

Compound: CCCCC(CCCC)=NNC(=S)SC
- GI50 [8]: 42 µM (inactive)

Compound: CC1(C)CCC(=O)NC1CC(=O)CC1NC(=O)CCC1(C)C (stereo unspecified)
- GI50 [8]: > 100 µM (inactive)

Compound: O=C(NCCCCCCNC(=O)NC1OCC(O)C(O)C1O)NC1OCC(O)C(O)C1O (stereo unspecified)
- GI50 [1]: > 100 µM (inactive)
- GI50 [2]: > 100 µM (inactive)
- GI50 [5]: > 100 µM (inactive)

Compound: N#CCCN(CCC#N)c1ccc(C(/N=N/c2ccccc2)=N\c2ccccc2)cc1
- GI50 [8]: 13 µM (inactive)

Compound: COc1ccc(-c2cn3c(n2)sc2cc(C)ccc23)cc1
- GI50 [8]: 12.1 µM (inactive)

Compound: O=C(CC(=O)C(=O)Nc1ccccc1)CC(c1ccccc1)c1c(O)c2ccccc2oc1=O (stereo unspecified)
- GI50 [1]: > 100 µM (inactive)
- GI50 [2]: > 100 µM (inactive)
- GI50 [3]: > 100 µM (inactive)
- GI50 [9]: > 100 µM (inactive)
- GI50 [4]: > 100 µM (inactive)
- GI50 [6]: > 100 µM (inactive)

Source: ChEMBL document CHEMBL1201862, “PubChem BioAssay data set” (2004)
